# Laboratory results as given in patent US20220356232A1, “A COMBINATION OF PLASMA IMMUNOGLOBULIN AND ANTIGEN-SPECIFIC IMMUNOGLOBULIN FOR THE MODIFICATION OF THE IMMUNE SYSTEM AND THE TREATMENT OR PREVENTION OF AUTOIMMUNE DISEASES” (Network Immunology Inc., priority 2019, published 2022).
# Experiments:
# Format in all cases: in vivo, C57BL/6 mice
# [1] = system: PP cells isolated from colonic tissue; test: FACS staining of CD3+ and Foxp3+ cells in PP cells isolated from colonic tissue, chronic colitis; settings: DSS chronic colitis, treatment as per FIG. 7A
# [2] = system: DSS-induced chronic colitis; test: DSS-induced chronic colitis: body weight and colon length (Example 6)
# [3] = system: DSS-induced chronic colitis; test: Effect of T depletion (anti-CD4 mAb) on protection from DSS-induced chronic colitis; settings: no anti-CD4 mAb
# [4] = system: colonic explants from mice with chronic colitis; test: Cytokine release from 24 hr colonic explant cultures, chronic colitis (Example 6); settings: 24 hr colonic explant cultures harvested at 38 d; FIG. 8
# [5] = system: DSS-induced acute colitis; test: DSS-induced acute colitis (Example 6); settings: 3% DSS 7 days; treatment from time of DSS exposure; FIGS. 12A-12C
# Excerpt: Wild-type (WT) C57BL/6 female mice, with high susceptibility to DSS-induced colitis, were used throughout and purchased from the Jackson laboratories (Bar Harbor, Me.). All mice were housed five per cage under specific pathogen-free conditions, allowed standard diet and water ad libitum, and used at 6-8 wk of age. Acute DSS colitis was induced by giving mice distilled drinking water containing 3% (wt./vol) DSS (Mol.Wt.=40 kDa; ICN Biochemicals, Aurora, Ohio) for 7 days. For induction of chronic colitis, mice were treated with 5 days of 2.5% DSS followed by 7 days of normal drinking water for a total of 3 cycles. Body weight was measured three times/week throughout the experiment. The maximum mortality observed following induction of acute colitis was 15% averaged over all studies, while no significant mortality was seen any groups in the chronic colitis model. Maximum weight loss in either model was ˜25%. […] In FIG. 12A, changes in body weight are expressed as a percent weight loss from baseline and plotted versus time post initiation of DSS treatment (x-axis). […] In FIGS. 12B and 12C, changes in colon length and 24 hr cytokine production from colon explant cultures respectively were assessed on day 9 following initiation of DSS treatment for mice shown in FIG. 12A and are expressed as mean±SD.
smiles,measurement,setting,value
C[C@]12CCC(=O)C=C1CC[C@@H]1[C@@H]2[C@@H](O)C[C@@]2(C)[C@H]1CC[C@]2(O)C(=O)COC(=O)CCC(=O)O [Solu-Cortef],% Ant-CD3,[1]; PP cells from 2-3 mice/group,4.4 ± 2.2%
same,% Anti-Foxp3,[1]; PP cells from 2-3 mice/group,0.2 ± 0.2%
same,Foxp3:CD3,"[1]; ratio, PP cells",0.04
same,weight loss in second and third cycle of DSS treatment,"[2]; Ig weekly ×5 im from start of first DSS cycle, Solu-Cortef 6 μg/mouse alternate days, FIG. 7A",attenuation of weight loss
same,suppression of disease in chronic colitis,"[2]; all DSS cycles, 6 μg/mouse on alternate days",active in suppressing disease at all times
same,weight loss after induction of chronic colitis,"[3]; 5 mice/group, FIG. 9A",protected
same,release of inflammatory cytokines from colon explant cultures,[3]; FIG. 10,attenuation of release
same,"release of inflammatory cytokines IFNγ, TNFα, IL-1β, IL-17 and IL-6",[4],No such increased inflammatory cytokine release
same,"protection from pathology of acute colitis (weight loss, colon length, production of inflammatory cytokines)",[5],protected
